Tested on: human mammary cancer-derived KPL-4 cells
Assay: Cell growth inhibition test with KPL-4 cells (WST-1)
Assay type: cell-based
Conditions: KPL4, 72 hours, read-out: 50% growth inhibition concentration (GI50)
Procedure: In a 96-well plate (Nunc), human mammary cancer-derived KPL-4 cells were sown in an amount of 2000 cells/well, and pre-incubated in 10% fetal calf serum (FCS)-containing Dulbecco Modified Eagle Medium (DMEM) (incubation medium) in a 5% carbon dioxide incubator at 37° C. for 24 hours. A dimethylsulfoxide (DMSO) solution of a test compound controlled at 10 mmol/L was stepwise diluted with the incubation medium, and added to each well in a total amount of 100 μL/well, and incubated in the 5% carbon dioxide incubator at 37° C. for 72 hours. After the incubation, WST-1 {4-[3-(4-Iodophenyl)-2-(4-nitrophenyl)-2H-5-tetrazolio]-1,3-benzene disulfonate}-labeled mixture (Rosh Diagnostic) diluted 2-fold with the incubation medium was added thereto in an amount of 20 μL/well, and incubated in the 5% carbon dioxide incubator at 37° C. for 1 hour. Using a microplate spectrophotometer (Biorad's Model 550), the absorbance at 450 nm and 655 nm of each well was measured. The cell growth inhibition activity of the test compound was indicated by the 50% growth inhibition concentration (GI50) thereof. A method of calculating GI50 is described. The absorbance at 655 nm of each well was subtracted from the absorbance at 450 nm thereof to give a value (absorbance difference). The absorbance difference obtained with the cells without being treated with the test compound was taken as 100%, and this was compared with the absorbance difference obtained with the cells treated with the test compound to give the concentration of the compound for 50% cell growth inhibition, and this is referred to as GI50.

| Structure (SMILES) | GI50 [µM] |
| --- | --- |
| O=C(Cc1c(Br)c(O)cc(O)c1-c1ccccc1)NCc1ccncc1 [Compound 54, 2-(2-Bromo-3,5-dihydroxy-6-phenylphenyl)-N-(pyridin-4-ylmethyl)acetamide] | ≤ 50 |
| COC(=O)Cc1c(C=O)c(O)cc(O)c1-c1ccccc1 [Compound 55, Methyl 2-formyl-3,5-dihydroxy-6-phenylphenylacetate] | ≤ 50 |
| COC(=O)Cc1c(C)c(O)cc(O)c1-c1ccccc1 [Compound 56, Methyl 3,5-dihydroxy-6-methyl-2-phenylphenylacetate] | ≤ 50 |
| O=C(c1ccccc1)c1c(Br)c(O)cc(O)c1-c1ccccc1 [Compound 58, 2-Bromo-3,5-dihydroxy-6-phenylphenyl phenyl ketone] | ≤ 50 |
| COC(=O)C=Cc1c(Br)c(O)cc(O)c1-c1ccccc1 [Compound 59, Methyl 3-(2-bromo-3,5-dihydroxy-6-phenylphenyl)acrylate] | ≤ 50 |
| CC(=O)C=Cc1c(Br)c(O)cc(O)c1-c1ccccc1 [Compound 60, 4-(2-Bromo-3,5-dihydroxy-6-phenylphenyl)but-3-en-2-one] | ≤ 50 |
| COc1c(Br)c(O)cc(O)c1-c1ccccc1 [Compound 61, 6-Bromo-5-methoxy-4-phenylbenzene-1,3-diol] | ≤ 50 |
| OCCc1c(Br)c(O)cc(O)c1-c1ccccc1 [Compound 62, 6-Bromo-5-(2-hydroxyethyl)-4-phenylbenzene-1,3-diol] | ≤ 50 |
| COCCc1c(Br)c(O)cc(O)c1-c1ccccc1 [Compound 64, 6-Bromo-5-(2-methoxyethyl)-4-phenylbenzene-1,3-diol] | ≤ 50 |
| CC(=O)Cc1c(Br)c(O)cc(O)c1-c1ccccc1 [Compound 65, 1-(2-Bromo-3,5-dihydroxy-6-phenylphenyl)propan-2-one] | ≤ 50 |
| COC(=O)Cc1c(Cc2ccccc2)c(O)cc(O)c1-c1ccccc1 [Compound 70, Methyl 2-benzyl-3,5-dihydroxy-6-phenylphenylacetate] | ≤ 50 |
| COCCOCc1c(Br)c(O)cc(O)c1-c1ccccc1 [Compound 71, 6-Bromo-5-[(2-methoxyethoxy)methyl]-4-phenylbenzene-1,3-diol] | ≤ 50 |
| COCCOCCOCc1c(Br)c(O)cc(O)c1-c1ccccc1 [Compound 72, 6-Bromo-5-[2-(2-methoxyethoxy)ethoxymethyl]-4-phenylbenzene-1,3-diol] | ≤ 50 |
| COC(=O)Cc1cc(O)cc(O)c1-c1ccc(C(C)=O)cc1 [Compound 73, Methyl 2-(4-acetylphenyl)-3,5-dihydroxyphenylacetate] | ≤ 50 |
| COC(=O)Cc1cc(O)cc(O)c1-c1cccc(OC(F)(F)F)c1 [Compound 74, Methyl 3,5-dihydroxy-2-[3-(trifluoromethoxy)phenyl]phenylacetate] | ≤ 50 |
| COC(=O)Cc1cc(O)cc(O)c1-c1ccc(OC(F)(F)F)cc1 [Compound 75, Methyl 3,5-dihydroxy-2-[4-(trifluoromethoxy)phenyl]phenylacetate] | ≤ 50 |
| COC(=O)Cc1cc(O)cc(O)c1-c1cccc(CO)c1 [Compound 76, Methyl 3,5-dihydroxy-2-[3-(hydroxymethyl)phenyl]phenylacetate] | ≤ 50 |
| COC(=O)Cc1cc(O)cc(O)c1-c1cccc([N+](=O)[O-])c1 [Compound 77, Methyl 3,5-dihydroxy-2-(3-nitrophenyl)phenylacetate] | ≤ 50 |
| COC(=O)Cc1cc(O)cc(O)c1-c1cccc(C#N)c1 [Compound 78, Methyl 2-(3-cyanophenyl)-3,5-dihydroxyphenylacetate] | ≤ 50 |
| COC(=O)Cc1cc(O)cc(O)c1-c1ccc(-c2ccccc2)cc1 [Compound 79, Methyl 3,5-dihydroxy-2-(4-phenylphenyl)phenylacetate] | ≤ 50 |
| COC(=O)Cc1cc(O)cc(O)c1-c1ccc(Oc2ccccc2)cc1 [Compound 80, Methyl 3,5-dihydroxy-2-(4-phenoxyphenyl)phenylacetate] | ≤ 50 |

Results, then the compound that gave them:

| GI50 [µM] | Structure (SMILES) |
| --- | --- |
| ≤ 50 | COC(=O)Cc1cc(O)cc(O)c1-c1ccccc1 [Compound 1, Methyl 3,5-dihydroxy-2-phenylphenylacetate] |
| ≤ 50 | COC(=O)Cc1cc(O)cc(O)c1-c1cccc(C=NO)c1 [Compound 3, Methyl 3,5-dihydroxy-2-[3-(hydroxyiminomethyl)phenyl]phenylacetate] |
| ≤ 50 | COC(=O)Cc1cc(O)cc(O)c1-c1cccc(C(C)=O)c1 [Compound 8, Methyl 2-(3-acetylphenyl)-3,5-dihydroxyphenylacetate] |
| ≤ 50 | COC(=O)Cc1c(Br)c(O)cc(O)c1-c1ccccc1 [Compound 10, Methyl 2-bromo-3,5-dihydroxy-6-phenylphenylacetate] |
| ≤ 50 | COC(=O)Cc1c(-c2ccccc2)c(O)cc(O)c1-c1ccccc1 [Compound 11, Methyl 3,5-dihydroxy-2,6-diphenylphenylacetate] |
| ≤ 50 | COC(=O)Cc1c(I)c(O)cc(O)c1-c1ccccc1 [Compound 13, Methyl 3,5-dihydroxy-2-iodo-6-phenylphenylacetate] |
| ≤ 50 | O=C(Cc1c(Br)c(O)cc(O)c1-c1ccccc1)NCc1cccnc1 [Compound 17, 2-(2-Bromo-3,5-dihydroxy-6-phenylphenyl)-N-(pyridin-3-ylmethyl)acetamide] |
| ≤ 50 | O=C(Cc1c(Br)c(O)cc(O)c1-c1ccccc1)NC1CCN(Cc2ccccc2)CC1 [Compound 18, N-(1-benzylpiperidin-4-yl)-2-(2-bromo-3,5-dihydroxy-6-phenylphenyl)acetamide] |
| ≤ 50 | COCCNC(=O)Cc1c(Br)c(O)cc(O)c1-c1ccccc1 [Compound 23, 2-(2-Bromo-3,5-dihydroxy-6-phenylphenyl)-N-(2-methoxyethyl)acetamide] |
| ≤ 50 | Oc1cc(O)c(-c2ccccc2)c(COCc2ccccc2)c1Br [Compound 25, 5-(Benzyloxymethyl)-6-bromo-4-phenylbenzene-1,3-diol] |
| ≤ 50 | O=C(Cc1c(Br)c(O)cc(O)c1-c1ccccc1)N1CCOCC1 [Compound 35, 2-(2-Bromo-3,5-dihydroxy-6-phenylphenyl)-1-morpholinoethanone] |
| ≤ 50 | CCCN(C)C(=O)Cc1c(Br)c(O)cc(O)c1-c1ccccc1 [Compound 36, 2-(2-Bromo-3,5-dihydroxy-6-phenylphenyl)-N-methyl-N-propylacetamide] |
| ≤ 50 | N#Cc1ccccc1N1CCN(C(=O)Cc2c(Br)c(O)cc(O)c2-c2ccccc2)CC1 [Compound 38, 2-(2-Bromo-3,5-dihydroxy-6-phenylphenyl)-1-[4-(2-cyanophenyl)piperazin-1-yl]ethanone] |
| ≤ 50 | NC(=O)Cc1c(Br)c(O)cc(O)c1-c1ccccc1 [Compound 41, 2-(2-Bromo-3,5-dihydroxy-6-phenylphenyl)acetamide] |
| ≤ 50 | CN(C)C(=O)Cc1c(Br)c(O)cc(O)c1-c1ccccc1 [Compound 43, 2-(2-Bromo-3,5-dihydroxy-6-phenylphenyl)-N,N-dimethylacetamide] |
| ≤ 50 | COC(=O)c1c(Br)c(O)cc(O)c1-c1ccccc1 [Compound 47, Methyl 2-bromo-3,5-dihydroxy-6-phenylbenzoate] |
| ≤ 50 | O=C(NCc1ccccc1)c1c(Br)c(O)cc(O)c1-c1ccccc1 [Compound 51, N-benzyl-2-bromo-3,5-dihydroxy-6-phenylbenzamide] |

— patent US7538241B2, “Hsp90 family protein inhibitors” (Kyowa Hakko Kogyo Co., Ltd., priority 2003, dated 2009)
